Experimental data published in patent publication US10538555B2, “Macrocyclic inhibitors of the PD-1/PD-L1 and CD80(B7-1)/PD-L1 protein/protein interactions” (BRISTOL-MYERS SQUIBB COMPANY, priority 2014, dated 2020).
*1 amine or outer side, *2 acyl side, *3 side chain or, on linkers, in order; H or OH if unused. Where a SMILES comes first, the peptide text is derived from it. Bridges are numbered along the chain shown (N, C = ends). [ ]: non-standard residue; d: D form. ξ: configuration not given here. Trp(1-CH2COOH) = N[C@@H](Cc1cn(CC(=O)O)c2ccccc12)C(=O)O; Trp(βS-Me) = C[C@@H](c1c[nH]c2ccccc12)[C@H](N)C(=O)O; Phe(3,4,5-F3) = N[C@@H](Cc1cc(F)c(F)c(F)c1)C(=O)O; NMeAla(4-thiazolyl) = CN[C@@H](Cc1cscn1)C(=O)O; NMePhe(4-F) = CN[C@@H](Cc1ccc(F)cc1)C(=O)O; Phe(4-F) = N[C@@H](Cc1ccc(F)cc1)C(=O)O; d(cisHyp) = O=C(O)[C@H]1C[C@@H](O)CN1; Hyp = O=C(O)[C@@H]1C[C@@H](O)CN1; NMeF = CN[C@@H](Cc1ccccc1)C(=O)O; X1 = O=C([C@H]1COCCN1[*:1])[*:2]; dHyp = O=C(O)[C@H]1C[C@H](O)CN1; NMeL = CN[C@@H](CC(C)C)C(=O)O; NMeNle = CCCC[C@H](NC)C(=O)O; dPip = O=C(O)[C@H]1CCCCN1; hSer = N[C@@H](CCO)C(=O)O; NMeA = CN[C@@H](C)C(=O)O; Orn = NCCC[C@H](N)C(=O)O; dThz = O=C(O)[C@H]1CSCN1; Dab = NCC[C@H](N)C(=O)O; Dap = NC[C@H](N)C(=O)O; ξC = NC(CS)C(=O)O; Sar = CNCC(=O)O

Target: T1, Human PD-L1/PD-1 (Homo sapiens, UniProt Q9NZQ7)
T1 construct: TVMV protease cleavage site (C); made in house; host or cells: HEK293T cells
T1 sequence (Q9NZQ7 with tags, fused parts or gaps): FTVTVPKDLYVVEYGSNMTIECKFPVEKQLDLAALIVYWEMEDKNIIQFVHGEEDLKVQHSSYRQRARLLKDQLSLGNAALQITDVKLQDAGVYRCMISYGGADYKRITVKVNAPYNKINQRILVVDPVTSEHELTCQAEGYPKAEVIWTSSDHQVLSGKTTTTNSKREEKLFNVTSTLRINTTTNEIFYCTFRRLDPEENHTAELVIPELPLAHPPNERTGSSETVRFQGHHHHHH
Test: HTRF Human PD-L1/PD-1 binding assay (PD-1-Ig/PD-L1-His)
Conditions: PD-L1-His 10 nM, PD-1-Ig 20 nM; class symbol; read-out: HTRF Human PD-L1/PD-1 Binding Assay IC50 Range
Method in brief: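 Truncated Fc-fused human PD-1 (aa 25-167) at 20 nM and His-tagged PD-L1 (aa 18-239) at 10 nM final are used, with peptides preincubated 15 min with PD-L1. Detection uses europium-cryptate anti-Ig and APC anti-His antibodies; 665/620 nm ratio.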

SMILES | IC50 [nM]
CCCC[C@H]1C(=O)N2C[C@H](O)C[C@@H]2C(=O)N[C@@H](CC(=O)O)C(=O)N[C@@H](C(C)C)C(=O)N(C)[C@@H](Cc2ccccc2)C(=O)N[C@@H](CC(=O)O)C(=O)N2CSC[C@@H]2C(=O)N[C@@H](Cc2c[nH]c3ccccc23)C(=O)N[C@@H](Cc2ccc(O)cc2)C(=O)N[C@@H](CC(C)C)C(=O)N[C@H](C(=O)NCC(N)=O)CSCC(=O)N[C@@H](Cc2cc(F)c(F)c(F)c2)C(=O)N(C)[C@@H](Cc2ccccc2)C(=O)N1C [Example 10149] ({CH2CO}-[Phe(3,4,5-F3)][NMeF][NMeNle][d(cisHyp)]DV[NMeF]D[dThz]WYLCG-NH2; thioether N-13) | 1 to 9.9
CCCC[C@H]1C(=O)N[C@@H](CC(N)=O)C(=O)N2CCC[C@H]2C(=O)N[C@@H](Cc2c[nH]cn2)C(=O)N[C@@H](CCC(N)=O)C(=O)N2C[C@H](O)C[C@H]2C(=O)N[C@@H]([C@@H](C)c2c[nH]c3ccccc23)C(=O)N[C@@H](CO)C(=O)N[C@@H](Cc2c[nH]c3ccccc23)C(=O)N(C)[C@@H](C)C(=O)N(C)[C@@H](C)C(=O)N[C@@H](CC(C)C)C(=O)N[C@H](C(=O)NCC(N)=O)CSCC(=O)N[C@@H](Cc2ccc(O)cc2)C(=O)N1C [Example 10536] ({CH2CO}-Y[NMeNle]NPHQ[Hyp][Trp(βS-Me)]SW[NMeA][NMeA]LCG-NH2; thioether N-14) | 1000 to 10000
CCCC[C@H]1C(=O)N[C@@H](Cc2ccc(O)cc2)C(=O)N2CCC[C@@H]2C(=O)N[C@@H](Cc2c[nH]c3ccccc23)C(=O)N[C@@H](Cc2ccc(O)cc2)C(=O)N[C@@H](CC(C)C)C(=O)N[C@H](C(=O)NCC(N)=O)CSCC(=O)N[C@@H](Cc2cc(F)c(F)c(F)c2)C(=O)N(C)[C@@H](Cc2ccccc2)C(=O)N(C)[C@@H](CCCC)C(=O)N2CCC[C@@H]2C(=O)N[C@@H](CC(=O)O)C(=O)N[C@@H](C(C)C)C(=O)N1C [Example 9213] ({CH2CO}-[Phe(3,4,5-F3)][NMeF][NMeNle][dP]DV[NMeNle]Y[dP]WYLCG-NH2; thioether N-13) | 10 to 99.9
CCCC[C@H]1C(=O)N2CCC[C@@H]2C(=O)N[C@@H](CC(=O)O)C(=O)N[C@@H](C(C)C)C(=O)N(C)[C@@H](CC(C)C)C(=O)N[C@@H](CCC(N)=O)C(=O)N2CCCC[C@@H]2C(=O)N[C@@H](Cc2c[nH]c3ccccc23)C(=O)N[C@@H](Cc2ccc(O)cc2)C(=O)N[C@@H](CC(C)C)C(=O)N[C@H](C(=O)NCC(N)=O)CSCC(=O)N[C@@H](Cc2ccc(F)cc2)C(=O)N(C)[C@@H](Cc2ccccc2)C(=O)N1C [Example 9254] ({CH2CO}-[Phe(4-F)][NMeF][NMeNle][dP]DV[NMeL]Q[dPip]WYLCG-NH2; thioether N-13) | 1000 to 10000
CCCC[C@H]1C(=O)N(C)[C@@H](CCCC)C(=O)N[C@@H](CCCNC(=N)N)C(=O)NC(C(=O)NCC(N)=O)CSCC(=O)N[C@@H](Cc2ccc(O)cc2)C(=O)N(C)[C@@H](C)C(=O)N[C@@H](CC(N)=O)C(=O)N2CCC[C@H]2C(=O)N[C@@H](CC(N)=O)C(=O)N[C@@H](CC(C)C)C(=O)N2C[C@H](O)C[C@H]2C(=O)N[C@@H](Cc2c[nH]c3ccccc23)C(=O)N[C@@H](CCO)C(=O)N[C@@H](Cc2c[nH]c3ccccc23)C(=O)N1C (stereo partly drawn) [Example 9130] ({CH2CO}-Y[NMeA]NPNL[Hyp]W[hSer]W[NMeNle][NMeNle]R[ξC]G-NH2; thioether N-14) | 1 to 9.9
CCCC[C@H]1C(=O)N(C)[C@@H](CCCC)C(=O)N[C@@H](CC(C)C)C(=O)N[C@H](C(=O)NCC(N)=O)CSCC(=O)N[C@@H](Cc2ccc(O)cc2)C(=O)N(C)[C@@H](C)C(=O)N[C@@H](CC(=O)O)C(=O)N2CCC[C@H]2C(=O)N[C@@H](Cc2cnc[nH]2)C(=O)N[C@@H](CCC(=O)O)C(=O)N2C[C@H](O)C[C@H]2C(=O)N[C@@H](Cc2c[nH]c3ccccc23)C(=O)N[C@@H](CO)C(=O)N[C@@H](Cc2cn(CC(=O)O)c3ccccc23)C(=O)N1C [Example 6276] ({CH2CO}-Y[NMeA]DPHE[Hyp]WS[Trp(1-CH2COOH)][NMeNle][NMeNle]LCG-NH2; thioether N-14) | 1 to 9.9
CCCC[C@H]1C(=O)N2CCC[C@@H]2C(=O)N[C@@H](CC(=O)O)C(=O)N[C@@H](C(C)C)C(=O)N(C)[C@@H](Cc2ccccc2)C(=O)N[C@@H](CCC(=O)O)C(=O)N2CCOC[C@@H]2C(=O)N[C@@H](Cc2c[nH]c3ccccc23)C(=O)N[C@@H](Cc2ccc(O)cc2)C(=O)N[C@@H](CCN)C(=O)N[C@H](C(=O)NCC(N)=O)CSCC(=O)N[C@@H](Cc2cc(F)c(F)c(F)c2)C(=O)N(C)[C@@H](Cc2ccc(F)cc2)C(=O)N1C [Example 10605] ({CH2CO}-[Phe(3,4,5-F3)][NMePhe(4-F)][NMeNle][dP]DV[NMeF]E[X1]WY[Dab]CG-NH2; thioether N-13) | 1 to 9.9
CCCC[C@H]1C(=O)N(C)CC(=O)N[C@@H](CC(N)=O)C(=O)N[C@@H](C(C)C)C(=O)N(C)[C@@H](Cc2ccccc2)C(=O)N[C@@H](Cc2ccc(O)cc2)C(=O)N(C)CC(=O)N[C@@H](Cc2c[nH]c3ccccc23)C(=O)N[C@@H](Cc2ccc(O)cc2)C(=O)N[C@@H](CCCN)C(=O)N[C@H](C(=O)NCC(N)=O)CSCC(=O)N[C@@H](Cc2ccccc2)C(=O)N(C)[C@@H](Cc2cscn2)C(=O)N1C [Example 3616] ({CH2CO}-F[NMeAla(4-thiazolyl)][NMeNle][Sar]NV[NMeF]Y[Sar]WY[Orn]CG-NH2; thioether N-13) | 10 to 99.9
CCCC[C@H]1C(=O)N(C)[C@@H](CCCC)C(=O)N[C@@H](CCC(=O)O)C(=O)NC(C(=O)NCC(N)=O)CSCC(=O)N[C@@H](Cc2ccc(O)cc2)C(=O)N(C)[C@@H](C)C(=O)N[C@@H](CC(N)=O)C(=O)N2CCC[C@H]2C(=O)N[C@@H](Cc2c[nH]cn2)C(=O)N[C@@H](CC(N)=O)C(=O)N2CCC[C@H]2C(=O)N[C@@H](Cc2c[nH]c3ccccc23)C(=O)N[C@@H](CCN)C(=O)N[C@@H](Cc2c[nH]c3ccccc23)C(=O)N1C (stereo partly drawn) [Example 9182] ({CH2CO}-Y[NMeA]NPHNPW[Dab]W[NMeNle][NMeNle]E[ξC]G-NH2; thioether N-14) | 1 to 9.9
CCCC[C@H]1C(=O)N2C[C@@H](O)C[C@@H]2C(=O)N[C@@H](CC(=O)O)C(=O)N[C@@H](C(C)C)C(=O)N(C)[C@@H](Cc2ccccc2)C(=O)N[C@@H](CCC(=O)O)C(=O)N2C[C@@H](O)C[C@@H]2C(=O)N[C@@H](Cc2c[nH]c3ccccc23)C(=O)N[C@@H](Cc2ccc(O)cc2)C(=O)N[C@@H](CCCN)C(=O)N[C@H](C(=O)NCC(N)=O)CSCC(=O)N[C@@H](Cc2cc(F)c(F)c(F)c2)C(=O)N(C)[C@@H](Cc2ccccc2)C(=O)N1C [Example 9276] ({CH2CO}-[Phe(3,4,5-F3)][NMeF][NMeNle][dHyp]DV[NMeF]E[dHyp]WY[Orn]CG-NH2; thioether N-13) | 1 to 9.9
CCCC[C@H]1C(=O)N(C)[C@@H](CCCC)C(=O)N[C@@H](CC(C)C)C(=O)N[C@H](C(=O)NCC(N)=O)CSCC(=O)N[C@@H](Cc2ccc(O)cc2)C(=O)N(C)[C@@H](C)C(=O)N[C@@H](CC(N)=O)C(=O)N2CCC[C@H]2C(=O)N[C@@H](CN)C(=O)N[C@@H](CCC(N)=O)C(=O)N2C[C@H](O)C[C@H]2C(=O)N[C@@H](Cc2c[nH]c3ccccc23)C(=O)N[C@@H](CCN)C(=O)N[C@@H](Cc2cn(CC(=O)O)c3ccccc23)C(=O)N1C [Example 5259] ({CH2CO}-Y[NMeA]NP[Dap]Q[Hyp]W[Dab][Trp(1-CH2COOH)][NMeNle][NMeNle]LCG-NH2; thioether N-14) | 1 to 9.9
CCCC[C@H]1C(=O)N(C)[C@@H](CCCC)C(=O)N[C@@H](CN)C(=O)N[C@H](C(=O)NCC(N)=O)CSCC(=O)N[C@@H](Cc2ccc(O)cc2)C(=O)N(C)[C@@H](C)C(=O)N[C@@H](CC(N)=O)C(=O)N2CCC[C@H]2C(=O)N[C@@H](Cc2cnc[nH]2)C(=O)N[C@@H](CCC(=O)O)C(=O)N2C[C@H](O)C[C@H]2C(=O)N[C@@H](Cc2c[nH]c3ccccc23)C(=O)N[C@@H](CO)C(=O)N[C@@H](Cc2cn(CC(=O)O)c3ccccc23)C(=O)N1C [Example 6244] ({CH2CO}-Y[NMeA]NPHE[Hyp]WS[Trp(1-CH2COOH)][NMeNle][NMeNle][Dap]CG-NH2; thioether N-14) | 1 to 9.9
CCCC[C@H]1C(=O)N2C[C@H](O)C[C@@H]2C(=O)N[C@@H](CC(=O)O)C(=O)N[C@@H](C(C)C)C(=O)N(C)[C@@H](Cc2ccccc2)C(=O)N[C@@H](CCC(N)=O)C(=O)N2C[C@H](O)C[C@@H]2C(=O)N[C@@H](Cc2c[nH]c3ccccc23)C(=O)N[C@@H](Cc2ccc(O)cc2)C(=O)N[C@@H](CC(=O)O)C(=O)N[C@H](C(=O)NCC(N)=O)CSCC(=O)N[C@@H](Cc2cc(F)c(F)c(F)c2)C(=O)N(C)[C@@H](Cc2ccccc2)C(=O)N1C [Example 9358] ({CH2CO}-[Phe(3,4,5-F3)][NMeF][NMeNle][d(cisHyp)]DV[NMeF]Q[d(cisHyp)]WYDCG-NH2; thioether N-13) | 10 to 99.9
CCCC[C@H]1C(=O)N2C[C@H](O)C[C@@H]2C(=O)N[C@@H](CC(=O)O)C(=O)N[C@@H](C(C)C)C(=O)N(C)[C@@H](Cc2ccccc2)C(=O)N[C@@H](CCC(=O)O)C(=O)N2CCOC[C@@H]2C(=O)N[C@@H](Cc2c[nH]c3ccccc23)C(=O)N[C@@H](Cc2ccc(O)cc2)C(=O)N[C@@H](CCCCN)C(=O)N[C@H](C(=O)NCC(N)=O)CSCC(=O)N[C@@H](Cc2cc(F)c(F)c(F)c2)C(=O)N(C)[C@@H](Cc2ccc(F)cc2)C(=O)N1C [Example 10592] ({CH2CO}-[Phe(3,4,5-F3)][NMePhe(4-F)][NMeNle][d(cisHyp)]DV[NMeF]E[X1]WYKCG-NH2; thioether N-13) | 1 to 9.9
CCCC[C@H]1C(=O)N[C@@H](CC(N)=O)C(=O)N2CCC[C@H]2C(=O)N[C@@H](CO)C(=O)N[C@@H](CCO)C(=O)N2CCC[C@H]2C(=O)N[C@@H](Cc2c[nH]c3ccccc23)C(=O)N[C@@H](CO)C(=O)N[C@@H](Cc2c[nH]c3ccccc23)C(=O)N(C)[C@@H](C)C(=O)N(C)[C@@H](C)C(=O)N[C@@H](CCC(=O)O)C(=O)NC(C(=O)NCC(N)=O)CSCC(=O)N[C@@H](Cc2ccc(O)cc2)C(=O)N1C (stereo partly drawn) [Example 10209] ({CH2CO}-Y[NMeNle]NPS[hSer]PWSW[NMeA][NMeA]E[ξC]G-NH2; thioether N-14) | 1000 to 10000
